The record followed here is ChEMBL document CHEMBL3046645, “Novel 1,3-diarylpyrazole acrylamides: synthesis, antiplatelet activity screening, and in silico evaluation studies” (Med Chem Res, 2013).

Common to all, as to format: functional
For assay [1], the system named is Platelet. The assay is described as follows: Antiplatelet activity in human platelet-rich plasma assessed as inhibition of arachidonic acid-induced aggregation at 100 uM incubated for 5 mins prior to arachidonic acid-challenge measured for 3 mins by turbidrometric analysis relative to control.
Assay [2] has as its system Platelet. Put plainly: (§1) Antiplatelet activity in human platelet-rich plasma assessed as inhibition of collagen-induced aggregation at 100 uM incubated for 5 mins prior to collagen-challenge measured for 3 mins by turbidrometric analysis relative to control.
The nature of assay [3]: Antiplatelet activity in human platelet-rich plasma assessed as inhibition of arachidonic acid-induced aggregation incubated for 5 mins prior to arachidonic acid-challenge measured for 3 mins by turbidrometric analysis.
Assay [4] is described as follows: as §1.

Activity calls are given as the source filed them. No cut-off for these calls is given here.

What is called inhibition is the drop in the measured response relative to a control, in per cent. In the case of `O=C(/C=C/c1cn(-c2ccccc2)nc1-c1ccncc1)N1CCN(c2ccc(Cl)cc2)CC1`, the inhibition result in the assay with Platelet [1] and in the assay on Platelet [2] was “inactive” throughout. With `COc1ccccc1N1CCN(C(=O)/C=C/c2cn(-c3ccccc3)nc2-c2ccncc2)CC1`, the inhibition entry in the assay on Platelet [1] and in the assay with Platelet [2] was “inactive” each time. By IC50 is commonly meant the concentration that gives 50% inhibition. Regarding `O=C(/C=C/c1cn(-c2ccccc2)nc1-c1ccncc1)NCc1ccccc1`, the IC50 in assay [3] came to 20.2 µM. Besides, in assay [4], the inhibition at 100 µM worked out at 54.9%. `Cc1ccc(N2CCN(C(=O)/C=C/c3cn(-c4ccccc4)nc3-c3ccncc3)CC2)cc1`: the inhibition result with Platelet [1] and in the assay on Platelet [2] was “inactive” throughout. As to `CCOc1ccccc1N1CCN(C(=O)/C=C/c2cn(-c3ccccc3)nc2-c2ccncc2)CC1`, the inhibition result in the assay on Platelet [1] is “inactive”. In addition, the inhibition at 100 µM in assay [4] is 42%.

As to `O=C(/C=C/c1cn(-c2ccccc2)nc1-c1ccncc1)N1CCN(c2ccc(C(F)(F)F)cc2)CC1`, the inhibition result in the assay with Platelet [1] is “inactive”. The inhibition at 100 µM in assay [4] was determined as 25%. `COc1ccc(CNC(=O)/C=C/c2cn(-c3ccccc3)nc2-c2ccncc2)cc1`: the inhibition entry in the assay with Platelet [1] and in the assay on Platelet [2] was “inactive” each time. `Cc1cccc(N2CCN(C(=O)/C=C/c3cn(-c4ccccc4)nc3-c3ccncc3)CC2)c1C`: the inhibition result in the assay with Platelet [1] and in the assay on Platelet [2] was “inactive” throughout. Consider `O=C(/C=C/c1cn(-c2ccccc2)nc1-c1ccncc1)N1CCCCC1`, for which, in the assay with Platelet [1], the inhibition entry was “Active”. For `COc1ccc(N2CCN(C(=O)/C=C/c3cn(-c4ccccc4)nc3-c3ccncc3)CC2)c(OC)c1OC`, the inhibition result in the assay with Platelet [1] and with Platelet [2] was “inactive” each time. `O=C(/C=C/c1cn(-c2ccccc2)nc1-c1ccncc1)N1CCOCC1`: the inhibition entry with Platelet [1] was “Active”. For `O=C(/C=C/c1cn(-c2ccccc2)nc1-c1ccncc1)NC1CC1`, the inhibition result in the assay with Platelet [1] and in the assay with Platelet [2] was “inactive” each time. As for `O=C(/C=C/c1cn(-c2ccccc2)nc1-c1ccncc1)N1CCN(CCOCCO)CC1`, the inhibition result in the assay on Platelet [1] and in the assay on Platelet [2] was “inactive” each time. In the case of `CC(=O)Oc1ccccc1C(=O)O` [ASPIRIN], the 50% inhibitory concentration (IC50) in assay [3] was 7.7 µM. For the compound `O=C(/C=C/c1cn(-c2ccccc2)nc1-c1ccncc1)N1CCC(Cc2ccccc2)CC1`, the inhibition result in the assay with Platelet [1] and with Platelet [2] was “inactive” each time. Regarding `O=C(/C=C/c1cn(-c2ccccc2)nc1-c1ccncc1)N1CCN(c2cccc(Cl)c2)CC1`, the inhibition result in the assay on Platelet [1] and in the assay with Platelet [2] was “inactive” in each case.

`O=C(/C=C/c1cn(-c2ccccc2)nc1-c1ccncc1)N1CCN(C(=O)c2ccco2)CC1`: the inhibition result in the assay on Platelet [1] is “inactive”. Moreover, in assay [4], the inhibition at 100 µM was 50%.

`O=C(O)/C=C/c1cn(-c2ccccc2)nc1-c1ccncc1`: the inhibition entry with Platelet [1] and in the assay on Platelet [2] was “inactive” in each case.

Consider `O=C(/C=C/c1cn(-c2ccccc2)nc1-c1ccncc1)NC1CCCCC1`, for which the IC50 in assay [3] is 30.3 µM. Besides, the inhibition at 100 µM in assay [4] was 71.8%. `O=C(/C=C/c1cn(-c2ccccc2)nc1-c1ccncc1)N1CCN(c2ccncc2)CC1`: the inhibition result in the assay on Platelet [1] is “inactive”. In assay [4], the inhibition at 100 µM is 82.5%. Consider `O=C(/C=C/c1cn(-c2ccccc2)nc1-c1ccncc1)N1CCN(C(=O)C2CCCO2)CC1` (stereo not drawn), for which the inhibition result in the assay on Platelet [1] was “inactive”. Further, the inhibition at 100 µM in assay [4] turned out to be 68.9%. On to `O=C(/C=C/c1cn(-c2ccccc2)nc1-c1ccncc1)N1CCN(c2ccccc2)CC1`, for which the inhibition entry in the assay with Platelet [1] and in the assay on Platelet [2] was “inactive” in each case.

Take `O=C(/C=C/c1cn(-c2ccccc2)nc1-c1ccncc1)N1CCN(c2ncccn2)CC1`: the inhibition result in the assay with Platelet [1] is “inactive”. Moreover, in assay [4], the inhibition at 100 µM was 73.1%.
